According to patent publication US12527773B2, “Flavi-block: a pan-flavivirus inhibitor” (Baden-Württemberg Stiftung GmbH, priority 2020, dated 2026):
Read-outs that look alike come from different tables or passages of the source.

Tests used:
ZIKV = assay: RT-qPCR analysis of virus genomes, ZIKV; assay type: cell-based; conditions: Zika virus
Procedure: Vero cells were infected with ZIKV at an MOI of 1 for 2 h (post infection), after which virus was removed, and fresh maintenance medium containing 2% FCS together with the indicated concentration of C10 added. For co-treat condition, Vero cells were infected with ZIKV at an MOI of 1 in the presence of C10 for 2 h, followed by removal of the virus/C10 inoculums, and addition of fresh 2% fetal calf serum maintenance medium. […] Results represent the mean ±SD for duplicate wells from a single assay (cf. Table 2 for pooled data).
(§1) Viral RNA was extracted using Isolate II RNA extraction kit (Bioline), and the absolute number of RNA copies determined by Taqman One Step RT-qPCR (Applied Biosystems) by extrapolation from a standard curve generated from in vitro—transcribed virus RNA.
(§2) It was decided to test the ability of C10 to inhibit the flaviviruses DENV1-4, KUNV and ZIKV, in addition to the paramyxovirus RSV, as a control.

[1] = Cytotoxicity in Huh7.5 cells (Cell Titer Glo, ATP); assay type: cell-based; conditions: human, Huh7.5 cells; Huh7.5, 24 h
Procedure: (§3) Cell viability was measured via the presence of ATP using the Promega Cell Titer Glo kit according to the manufacturer's instructions. Luminescence was detected using the Cytation3 by Biotek. […] (B) The same set of data as shown in FIG. 4A was plotted in a line graph. […] (D) As for FIG. 4A, Huh7.5 cells (1.0×10^4 cells/well) were seeded and incubated with C10 at the indicated concentrations for the indicated time points before measurement of viability using the Promega Cell Titer Glo kit.
(§4) Cell viability was measured by the presence of ATP using the Promega Cell Titer Glo Kit according to the manufacturer's instructions. Luminescence was detected using a Biotek Cytation3.
(§5) In the analysis of the data, all values were normalized against the DMSO control and presented in terms of percentage viability. The result is shown in the bar chart of FIG. 4A and the line chart of FIG. 4B; n≥6 with SEM.
(§6) For this purpose, Huh7.5 cells were seeded, treated and analyzed as described above. The CC50 values for C10, D1, D2, and D3 were calculated using GraphPad Prism6 software with a non-linear regression curve fitting algorithm, as shown in FIG. 4B. It should be noted that the tested compounds precipitate at concentrations above 160 μM in aqueous solutions. For this reason, higher concentrations cannot be tested.

Huh7.5 cells = assay: Cytotoxicity in Huh7.5 cells (Cell Titer Glo, ATP); assay type: cell-based; conditions: Huh7.5, 24 h
Procedure: as §3, §4, §5, §6

[2] = tested on: VP1 polyomavirus, LP1 HPV16, p24 HIV, BSA, GFP; assay: Specificity in the cross-linking assay: other capsid and non-related proteins; assay type: biochemical
Procedure: DSS was included as a positive control.
To study the specificity of C10, capsid proteins of other viruses (VP1 polyomavirus, LP1 HPV16, and p24 HIV) as well as non-related proteins (BSA, GFP), were incubated in the so-called cross-linking assay, with DSS or C10.

[3] = Pharmacokinetic study in Balb/c mice, peroral administration; assay type: in vivo; conditions: for Plasma concentration, Group A-D: single animals
Procedure: Study design, animal selection, handling and treatment were all in accordance with the study protocols and institutional animal care and use guidelines. Male Balb/c mice (9-10 weeks old, body weight 22.3 to 38.1 g and average body weight across all groups 31.4 g, SD=3.20 g) were used in this study. The animals were randomly assigned to the treatment groups before the pharmacokinetic study; all animals were fasted for 4 h before dosing. Six time points for PO (15, 30, 60, 120, 240 and 360 min) and IV (5, 15, 30, 60, 120 and 240 min) routes were used in this pharmacokinetic study. Each of the PO and IV time point treatment groups included 4 animals. There was also control group of 2 animals. Dosing was done according to the treatment schedules outlined in Table 3. Mice were injected IV with 2,2,2-tribromoethanol at the dose of 150 mg/kg prior to taking blood. Blood collection was performed from the orbital sinus in microtainers containing K2EDTA. Animals were sacrificed by cervical dislocation after blood samples collection. All samples were immediately prepared, flash-frozen and stored at −70° C. until subsequent bioanalysis.
Samples Processing Plasma samples ([…]) were mixed with […] of IS solution. After mixing by pipetting and centrifuging for 4 min at 6,000 rpm, […] of each supernatant was injected into LC-MS/MS system. Solution of compound IS-02-03 (200 ng/ml in acetonitrile-methanol mixture, 1:1, v/v) was used as internal standard (IS) for quantification of C10 in plasma samples. Samples Analysis The concentrations of C10 were determined using high performance liquid chromatography/tandem mass spectrometry (HPLC-MS/MS). Shimadzu H PLC system comprised of 2 isocratic pumps LC-10Advp, an autosampler SIL-HTc, a sub-controller FCV-14AH and a degasser DGU-14A. Mass spectrometric analysis was performed using an API 3000 (triple-quadrupole) instrument from AB Sciex (Canada) with an electro-spray (ESI) interface. The data acquisition and system control was performed using Analyst 1.5.2 software from AB Sciex. HPLC-MS/MS Conditions
The pharmacokinetic data analysis was performed using non-compartmental, bolus injection or extravascular input analysis models in WinNonlin 5.2 (PharSight). Data below LLOQ were presented as missing to improve validity of T1/2 calculations. No outlier data points were removed from calculations. The bioavailability for the peroral route was calculated as: […]

HeLa-LC5-RIC cells = assay: Cytotoxicity in HeLa-LC5-RIC cells (Cell Titer Glo); assay type: cell-based
Procedure: as §3
It is shown that compound C10 is not toxic even a high concentrations of up to 40 μM.

KUNV = assay: RT-qPCR analysis of virus genomes, KUNV; assay type: cell-based, Kunjin virus; conditions: West Nile virus
Procedure: Vero cells were infected with KUNV at an MOI of 1 for 2 h (post infection), after which virus was removed, and fresh maintenance medium containing 2% FCS together with the indicated concentration of C10 added. For co-treat condition, Vero cells were infected with KUNV at an MOI of 1 in the presence of C10 for 2 h, followed by removal of the virus/C10 inoculums, and addition of fresh 2% fetal calf serum maintenance medium.
as §1, §2

CCN1/C(=C\C=C\c2sc3cc(NC(C)=O)ccc3[n+]2CC)Sc2cc(NC(C)=O)ccc21.[I-] [C10, 6-acetamido-2-((1E,3E)-3-(6-acetamido-3-ethylbenzo[d]thiazol-2(3H)-ylidene)prop-1-en-1-yl)-3-ethylbenzo[d]thiazol-3-ium iodide] showed an EC50 (ZIKV; read-out: EC50 from RT-qPCR analysis, ZIKV, c.t.) of 0.44 µM, an EC50 (ZIKV; read-out: EC50 from RT-qPCR analysis, ZIKV, p.i.) of 1.13 ± 1.1 µM and a CC50 at 24 h [1] of 106 µM. For the same compound, the “concentration up to which not toxic” value (Huh7.5 cells) was “up to 40 μM”, the “crosslinking effect on other capsid and non-related proteins” value [2] was “either no effect on these proteins or it starts at concentrations around 200 times higher than the IC50” and the oral bioavailability ([3]; PO 10 mg/kg versus IV 5 mg/kg) was “zero”. For the same compound, the “Plasma concentration, Mean” value ([3]; PO 10 mg/kg, 15 min) was 0 ng(ml), the “Plasma concentration, Group A-D” value ([3]; PO 10 mg/kg, 15 min, below LLOQ 10 ng/ml designated as zero) was 0 ng(ml) and the “Plasma concentration, Mean” value ([3]; PO 10 mg/kg, 30 min) was 0 ng(ml). The “Plasma concentration, Group A-D” value ([3]; PO 10 mg/kg, 30 min, below LLOQ designated as zero) was 0 ng(ml), the “Plasma concentration, Mean” value ([3]; PO 10 mg/kg, 60 min) was 0 ng(ml) and the “Plasma concentration, Group A-D” value ([3]; PO 10 mg/kg, 60 min, below LLOQ designated as zero) was 0 ng(ml). The “Plasma concentration, Mean” value ([3]; PO 10 mg/kg, 120 min) was 0 ng(ml), the “Plasma concentration, Group A-D” value ([3]; PO 10 mg/kg, 120 min, below LLOQ designated as zero) was 0 ng(ml) and the “Plasma concentration, Mean” value ([3]; PO 10 mg/kg, 240 min) was 0 ng(ml). The “Plasma concentration, Group A-D” value ([3]; PO 10 mg/kg, 240 min, below LLOQ designated as zero) was 0 ng(ml), the “Plasma concentration, Mean” value ([3]; PO 10 mg/kg, 360 min) was 0 ng(ml) and the “Plasma concentration, Group A-D” value ([3]; PO 10 mg/kg, 360 min, below LLOQ designated as zero) was 0 ng(ml). The “plasma levels following PO dosing” value ([3]; PO 10 mg/kg, LLOQ 10 ng/ml) was “below the lower limit of quantitation”, the cytotoxicity (HeLa-LC5-RIC cells) was “not toxic” and the EC50 (KUNV; read-out: EC50 from RT-qPCR analysis, KUNV, c.t.) was 0.31 ± 0.18 µM. It also gave an EC50 (KUNV; read-out: EC50 from RT-qPCR analysis, KUNV, p.i.) of 1.68 ± 0.64 µM.
